This is an account of results in patent US6657061B2, “Polymorphic forms of 6-[4-1(1-cyclohexyl-1H-tetrazol-5-yl)butoxy]-3,4-dihydro-2(1H)-quinolinone” (priority 2001, dated 2003).

For data set [1] the following is noted: Form A as prepared by the procedures of the '479 patent; cited from earlier work.
The conditions of data set [2]: Form A as prepared by the procedures of the '479 patent; cited from earlier work. The source holds these as a separate data set.
The nature of data set [3]: stability of the polymorphic form (statement only). It counts as physicochemical. As to conditions: solid form; test conditions not given.
Data set [4] in a line: DSC thermogram of combined Forms A, B and C; relative solubility inferred from melting points. It is filed as physicochemical. The settings on record: suggested by the lower DSC melting point (weaker crystal packing forces), not measured directly. An excerpt: Characterization of Form A of cilostazol, Form B of cilostazol, and Form C of cilostazol was further completed using DSC thermograms, shown in FIGS. 3, 4, and 5, respectively, with DSC thermograms for combinations of Form A and Form B; Form B and Form C; and Forms A, B, and C are shown in FIGS. 6, 7, and 8 respectively. DSC data were generated using a Mettler-Toledo DSC 821^e (Columbus, Ohio) with a Julabo FT900 intercooler chiller (Julabo Company; Allentown, Pa.). In general, samples were analyzed in a vented, sealed aluminum pan. Because the endothermic peak may vary depending upon the rate of heating and the calibration and precision of the instrument, with the amount of peak variation dependent upon the heating rate used, all thermograms included herein were run under the same, consistent conditions: heating at 10° C. per minute under a nitrogen purge at 40 mL/minute.
FIG. 8 illustrates a DSC thermogram for the combination of Form A, Form B and Form C having a second heating cycle with a maximum temperature of about 110° C. with a holding time of about 30 minutes. The peaks in the third heating cycle show a Form A to Form B to Form C peak area ratio of approximately 8:2:1, respectively, with the relative amount of Form A, Form B and Form C further variable on the heat of enthalpy of each polymorphic form.
On the technique in general: Differential scanning calorimetry records heat flow against a reference as temperature is scanned.

With `O=C1CCc2cc(OCCCCc3nnnn3C3CCCCC3)ccc2N1` [Form A, 6-[4-(1-cyclohexyl-1H-tetrazol-5-yl)butoxy]-3,4-dihydro-2(1H)-quinolinone], the aqueous solubility entry in data set [1] is reported as “low”. For the same compound, in data set [2], the bioavailability entry is given as “low”.

For the compound `O=C1CCc2cc(OCCCCc3nnnn3C3CCCCC3)ccc2N1` [Form B, 6-[4-(1-cyclohexyl-1H-tetrazol-5-yl)butoxy]-3,4-dihydro-2(1H)-quinolinone], the stability of polymorph result in data set [3] is “stable”. The “solubility relative to Form A” value in data set [4] is recorded as “more soluble than Form A”.
